Earlier results on one compound are cited in US20260325561A1, “4'-SUBSTITUTED NUCLEOSIDES AND NUCLEOTIDES AS ANTIVIRAL AGENTS” (THE SCRIPPS RESEARCH INSTITUTE, priority 2023, published 2026).

Structures are written as SMILES.

Data set [1] concerns RNA virus infections. The settings on record: cited from earlier work.
In data set [2] the test system is dengue. To be noted: cited from earlier work.
Data set [3] has as its system dengue. The settings on record: cited from earlier work. The source holds these as a separate data set.
The conditions of data set [4]: mouse or rhesus monkey model; cited from earlier work.
In data set [5] the test system is dengue 2′-0-methyltransferase NS5 domain. The settings on record: role: inhibitor; cited from earlier work.
In data set [6] the test system is dengue. The settings on record: cited from earlier work. The source holds these as a separate data set.

Regarding `NC(=O)c1ncn([C@@H]2O[C@H](CO)[C@@H](O)[C@H]2O)n1` [Ribavirin], the “effect against a range of RNA virus infections” value in data set [1] is given as “effective”. Also, in data set [2], the “protection against dengue, rhesus monkey model” value is “did not show protection”. In addition, the “activity against dengue in tissue culture” value in data set [3] is listed as “works against dengue in tissue culture”. The adverse effects induced result in data set [4] is “induced anemia and thrombocytosis”. Also, the “inhibition of dengue 2′-0-methyltransferase NS5 domain” value in data set [5] is recorded as “inhibiting”. The “protection against dengue, mouse model” value in data set [6] is reported as “did not show protection”.
